Reference: patent US20240246931A1, “COMPOUNDS AS PD1/PD-L1 INHIBITORS AND METHODS THEREOF” (JUBILANT PRODEL LLC, priority 2021, published 2024)
Like-named read-outs stand apart in the source and are kept apart here.

Legend:
PD-1/PD-L1 interaction = molecular target: T1, PD-1/PD-L1 interaction (Homo sapiens, UniProt Q9NZQ7); assay: PD-1/PD-L1 HTRF binding assay (CisBio kit); details: HTRF PD1/PD-L1 inhibition assay
T1 construct: purchased CisBio 63ADK000CPAPEG
How it was run: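 HTRF kit assay: compound was preincubated 15 min with tagged PD-L1 and PD-1 proteins, then Eu-cryptate and XL665 anti-tag antibodies were added for 1 h at room temperature. Readout was the 665/620 nm ratio ×10^4. IC50 was binned as A <100 nM, B 100–500 nM, C >500 nM.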

[1] = Metabolic stability in human liver microsomes; type: in vitro ADME; details: human liver microsomes 1.0 mg/mL, compound 1 μM, NADPH, first number of HLM/MLM cell
Source text: (§1) Metabolic Stability in Liver Microsomes
(§2) The purpose of this experiment is to measure the metabolic half-life of NCEs in sub-cellular fractions such as human liver microsomes (HLM) or mouse liver microsomes (MLM). This provides an in vitro means to calculate intrinsic hepatic clearance, and to support the prediction of human pharmacokinetics. This approach has been successfully utilized at early phase of drug discovery projects, to provide SAR input for reducing metabolic instability and for predicting in vivo hepatic clearance.
(§3) Procedure: Potassium phosphate buffer (66.7 mM, pH 7.4) containing liver microsomes (mouse and human) (1.0 mg/mL) was pre-incubated separately with compound (1 μM) and positive control (verapamil, 1 μM) in a 37° C. water bath for 5 min. The reactions were initiated by adding 20 μL of 10 mM NADPH. Reactions without NADPH (0 and 30 min) were also incubated to rule out non-NADPH metabolism or chemical instability in the incubation buffer. All reactions were terminated using 200 μL of ice-cold acetonitrile containing internal standard at 0, 5, 15 and 30 min. The vials were centrifuged at 3000 rpm for 15 min. The supernatants thus obtained were analyzed on LC-MS/MS to monitor the disappearance of test compound.

[2] = Metabolic stability in mouse liver microsomes; type: in vitro ADME; details: mouse liver microsomes 1.0 mg/mL, compound 1 μM, NADPH, second number of HLM/MLM cell
Source text: as §1, §2, §3

[3] = Brain exposure study in mice by IV route; type: in vivo; details: male, Balb/c, mouse; for Kp at 0.5 h: brain/plasma, read-out: Brain/Plasma ratio
Source text: Institutional Animal Ethical Committee (IAEC) of Jubilant Biosys (IAEC/JDC/2019/188R (for Mice) and IAEC/JDC/2019/189R (for Rat) nominated by CPCSEA (Committee for the Purpose of Control and Supervision of Experiments on Animals) approved the mice and rat pharmacokinetic experiments. Male Balb/c mice (˜6-8 weeks old with body weight range of 22-25 g) and male SD rats (6-8 weeks old with body weight range of 200-250 g) were procured from Vivo Biotech, Hyderabad, India. Animals were quarantined in Jubilant Biosys Animal House for a period of 7 days with a 12:12 h light: dark cycles, and prior to the study the animals were stratified as per body weight.
Procedure for Mice: Intravenous pharmacokinetics study was done at doses of 5, 10 mg/kg respectively at dose volume 5 mL/kg for IV route. Sparse sampling was done and at each time point three mice were used for blood sampling (˜100 μL) were collected from retro-orbital plexus at 0.083 (Only for IV) and 24 h. Blood samples collected in tubes containing K2 EDTA as anticoagulant and centrifuged for 5 min at 10,000 rpm in a refrigerated centrifuge (Biofuge, Heraeus, Germany) maintained at 4° C. for plasma separation. Group I (IV) received compound by intravenously by tail vein at […] in solution formulation. Blood concentration-time data of compound was analyzed by non-compartmental method using Phoenix WinNonlin Version 8.1.
Brain Exposure Study in Mice
The mice were placed in isoflurane anesthesia chamber; following complete anesthesia (3-5% isoflurane) blood sample (0.5 mL) was collected from retro-orbital plexus using mice capillary.
The mice were sacrificed by cervical dislocation. The dorsal surface of the skull was peeled away from the brain using bone cutter, dura matter was gently removed from surface of brain with help of forceps. Brain was gently taken out away from the head and placed in PBS buffer to remove blood. Brain was placed on blotting paper to remove the blood spots and transferred in pre-labelled tube. The isolated brain was weighed and homogenised using 5× volume of phosphate buffer saline (pH-7.4). During homogenization the brain homogenate was kept in ice till sample processing. The homogenate was processed by specified extraction process and analyzed by LC-MS/MS.
Evaluation of Brain Exposure Data by IV Route

T1 sequence (Q9NZQ7 19-238 limits assumed): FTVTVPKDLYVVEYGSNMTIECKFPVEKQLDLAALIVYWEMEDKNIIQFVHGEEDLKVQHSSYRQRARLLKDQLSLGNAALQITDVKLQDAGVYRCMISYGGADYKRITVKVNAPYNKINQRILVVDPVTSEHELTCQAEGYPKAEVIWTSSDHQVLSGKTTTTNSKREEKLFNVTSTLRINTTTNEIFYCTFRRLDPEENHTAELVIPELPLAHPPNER

In the case of `N#Cc1cncc(COc2cc(OCc3cccc(-c4ccccc4)c3C#N)c3c(c2CN2CC4(CC4)C[C@H]2CO)CCC3)c1` [Example 26, (S)-5-(((7-((2-cyano-[1,1′-biphenyl]-3-yl)methoxy)-4-((6-(hydroxymethyl)-5-azaspiro[2.4]heptan-5-yl)methyl)-2,3-dihydro-1H-inden-5-yl)oxy)methyl)nicotinonitrile], the IC50 (PD-1/PD-L1 interaction) is reported as under 100 nM, the “HLM % remaining @ 30 min” value [1] is reported as 6% and the “MLM % remaining @ 30 min” value [2] is reported as 5%.

In the case of `Cc1c(COc2cc(OCCF)c(CN3CCCC[C@H]3CO)c3c2CCC3)cccc1-c1ccccc1` [Example 27, (S)-(1-((5-(2-fluoroethoxy)-7-((2-methyl-[1,1′-biphenyl]-3-yl)methoxy)-2,3-dihydro-1H-inden-4-yl)methyl)piperidin-2-yl)methanol], the IC50 (PD-1/PD-L1 interaction) is reported as under 100 nM, the “HLM % remaining @ 30 min” value [1] is reported as 91% and the “MLM % remaining @ 30 min” value [2] is reported as 84%. For the same compound, the concentration at 0.5 h ([3]; brain, 10 mg/kg, 10 mpk, read-out: Brain (ng/g) Mean) was 11600 ng/g, the Kp at 0.5 h ([3]; 10 mg/kg, 10 mpk) was 12.2 and the concentration at 0.5 h ([3]; plasma, 10 mg/kg, 10 mpk, read-out: Plasma (ng/mL) Mean) was 949 ng/mL.

For `Cc1c(COc2cc(OCCF)c(CN3CCC[C@H]3CO)c3c2CCC3)cccc1-c1ccccc1` [Example 28, (S)-(1-((5-(2-fluoroethoxy)-7-((2-methyl-[1,1′-biphenyl]-3-yl)methoxy)-2,3-dihydro-1H-inden-4-yl)methyl)pyrrolidin-2-yl)methanol], the IC50 (PD-1/PD-L1 interaction) was under 100 nM, the “HLM % remaining @ 30 min” value [1] was 74% and the “MLM % remaining @ 30 min” value [2] was 82%.

With `N#Cc1c(COc2cc(OCCF)c(CN3CCCC[C@H]3CO)c3c2CCC3)cccc1-c1ccccc1` [Example 29, (S)-3-(((6-(2-fluoroethoxy)-7-((2-(hydroxymethyl)piperidin-1-yl)methyl)-2,3-dihydro-1H-inden-4-yl)oxy)methyl)-[1,1′-biphenyl]-2-carbonitrile] the IC50 (PD-1/PD-L1 interaction) was under 100 nM, the “HLM % remaining @ 30 min” value [1] was 56% and the “MLM % remaining @ 30 min” value [2] was 71%.

In the case of `Cc1c(COc2cc(OCCCCCF)c(CN3CCCC[C@H]3CO)c3c2CCC3)cccc1-c1ccccc1` [Example 30, (S)-(1-((5-((5-fluoropentyl)oxy)-7-((2-methyl-[1,1′-biphenyl]-3-yl)methoxy)-2,3-dihydro-1H-inden-4-yl)methyl)piperidin-2-yl)methanol], the IC50 (PD-1/PD-L1 interaction) is reported as under 100 nM, the “HLM % remaining @ 30 min” value [1] is reported as 57% and the “MLM % remaining @ 30 min” value [2] is reported as 74%.

For `Cc1c(COc2cc(OCCCCF)c(CN3CCCC[C@H]3CO)c3c2CCC3)cccc1-c1ccccc1` [Example 31, (S)-(1-((5-(4-fluorobutoxy)-7-((2-methyl-[1,1′-biphenyl]-3-yl)methoxy)-2,3-dihydro-1H-inden-4-yl)methyl)piperidin-2-yl)methanol], the IC50 (PD-1/PD-L1 interaction) was under 100 nM, the “HLM % remaining @ 30 min” value [1] was 65% and the “MLM % remaining @ 30 min” value [2] was 79%. The concentration at 0.5 h ([3]; brain, 5 mg/kg, 5 mpk, read-out: Brain (ng/g) Mean) was 2450 ng/g, the Kp at 0.5 h ([3]; 5 mg/kg, 5 mpk) was 4.9 and the concentration at 0.5 h ([3]; plasma, 5 mg/kg, 5 mpk, read-out: Plasma (ng/mL) Mean) was 501 ng/mL.

For `Cc1c(COc2cc(OCCCF)c(CN3CCCC[C@H]3CO)c3c2CCC3)cccc1-c1ccccc1` [Example 32, (S)-(1-((5-(3-fluoropropoxy)-7-((2-methyl-[1,1′-biphenyl]-3-yl)methoxy)-2,3-dihydro-1H-inden-4-yl)methyl)piperidin-2-yl)methanol], the IC50 (PD-1/PD-L1 interaction) was under 100 nM, the “HLM % remaining @ 30 min” value [1] was 81% and the “MLM % remaining @ 30 min” value [2] was 84%.

With `Cc1c(COc2cc(OCc3cccc(C#N)c3)c(CN3CCCC4CC43CO)c3c2CCC3)cccc1-c1ccccc1` (stereo not drawn) [Example 34, 3-(((4-((1-(hydroxymethyl)-2-azabicyclo[4.1.0]heptan-2-yl)methyl)-7-((2-methyl-[1,1′-biphenyl]-3-yl)methoxy)-2,3-dihydro-1H-inden-5-yl)oxy)methyl)benzonitrile] the IC50 (PD-1/PD-L1 interaction) was under 100 nM, the “HLM % remaining @ 30 min” value [1] was 8% and the “MLM % remaining @ 30 min” value [2] was 5%.

For `Cc1c(COc2cc(OCc3cncc(C#N)c3)c(CN3CCCC4CC43CO)c3c2CCC3)cccc1-c1ccccc1` (stereo not drawn) [Example 35, 5-(((4-((1-(hydroxymethyl)-2-azabicyclo[4.1.0]heptan-2-yl)methyl)-7-((2-methyl-[1,1′-biphenyl]-3-yl)methoxy)-2,3-dihydro-1H-inden-5-yl)oxy)methyl)nicotinonitrile], the IC50 (PD-1/PD-L1 interaction) was under 100 nM, the “HLM % remaining @ 30 min” value [1] was 3/3% and the “MLM % remaining @ 30 min” value [2] was 3/3%.

For `Cc1c(COc2cc(OCc3cncc(C(N)=O)c3)c(CN3CCCC[C@H]3CO)c3c2CCC3)cccc1-c1ccccc1` [Example 37, (S)-5-(((4-((2-(hydroxymethyl)piperidin-1-yl)methyl)-7-((2-methyl-[1,1′-biphenyl]-3-yl)methoxy)-2,3-dihydro-1H-inden-5-yl)oxy)methyl)nicotinamide], the IC50 (PD-1/PD-L1 interaction) was under 100 nM, the “HLM % remaining @ 30 min” value [1] was 86% and the “MLM % remaining @ 30 min” value [2] was 88%.

For `Cc1c(COc2cc(OCc3cccc(C(N)=O)c3)c(CN3CCC[C@H]3CO)c3c2CCC3)cccc1-c1ccccc1` [Example 38, (S)-3-(((4-((2-(hydroxymethyl)pyrrolidin-1-yl)methyl)-7-((2-methyl-[1,1′-biphenyl]-3-yl)methoxy)-2,3-dihydro-1H-inden-5-yl)oxy)methyl)benzamide], the IC50 (PD-1/PD-L1 interaction) was under 100 nM, the “HLM % remaining @ 30 min” value [1] was 78% and the “MLM % remaining @ 30 min” value [2] was 84%.

For `Cc1c(COc2cc(OCc3cc(C#N)c[n+]([O-])c3)c(CN3CCC[C@H]3CO)c3c2CCC3)cccc1-c1ccccc1` [Example 44, (S)-3-cyano-5-(((4-((2-(hydroxymethyl)pyrrolidin-1-yl)methyl)-7-((2-methyl-[1,1′-biphenyl]-3-yl)methoxy)-2,3-dihydro-1H-inden-5-yl)oxy)methyl)pyridine 1-oxide], the IC50 (PD-1/PD-L1 interaction) was under 100 nM, the “HLM % remaining @ 30 min” value [1] was 33% and the “MLM % remaining @ 30 min” value [2] was 15%.
